Measured values from PubChem BioAssay AID330 (DTP/NCI, 2004).
Where “and” joins values, the source holds several entries; their conditions need not be identical. Equal values may be shown once. Inconclusive results and toxic doses are left out.

Tested on: P388 leukemia ip, CD2F1 mice, survival T/C
Assay: NCI In Vivo Anticancer Drug Screen. Data for tumor model P388 Leukemia (intraperitoneal) in CD2F1 (CDF1) mice
Conditions: endpoint: median survival time, higher = longer survival
Summary of the method: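 Mice carrying the transplanted tumor received test compound or vehicle. Survival was recorded in each group, and the value is the treated-group measurement divided by that of the vehicle-treated control group.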

[1] = dose: 50.0 mg/kg/injection, schedule: Q01DX009 (ip), vehicle: saline with Tween-80
[2] = dose: 100.0 mg/kg/injection, schedule: Q01DX009 (ip), vehicle: saline with Tween-80
[3] = dose: 60.0 mg/kg/injection, schedule: Q01DX005 (ip), vehicle: saline with Tween-80
[4] = dose: 120.0 mg/kg/injection, schedule: Q01DX005 (ip), vehicle: saline with Tween-80
[5] = dose: 240.0 mg/kg/injection, schedule: Q01DX005 (ip), vehicle: saline with Tween-80
[6] = dose: 50.0 mg/kg/injection, schedule: Q01DX005 (ip), vehicle: Klucel (hydroxypropylcellulose) (HPC)
[7] = dose: 100.0 mg/kg/injection, schedule: Q01DX005 (ip), vehicle: Klucel (hydroxypropylcellulose) (HPC)
[8] = dose: 50.0 mg/kg/injection, schedule: Q01DX005 (ip), vehicle: saline with Tween-80
[9] = dose: 100.0 mg/kg/injection, schedule: Q01DX005 (ip), vehicle: saline with Tween-80
[10] = dose: 200.0 mg/kg/injection, schedule: Q01DX005 (ip), vehicle: saline with Tween-80

In the case of C=CCN(CC=C)c1ncnc2[nH]ncc12, the T/C (dose: 100.0 mg/kg/injection, schedule: Q04DX003 (ip), vehicle: saline with Tween-80) is reported as 100 % of control, the T/C (dose: 200.0 mg/kg/injection, schedule: Q04DX003 (ip), vehicle: saline with Tween-80) is reported as 100 % of control and the T/C (dose: 400.0 mg/kg/injection, schedule: Q04DX003 (ip), vehicle: saline with Tween-80) is reported as 100 % of control.
CS(=O)(=O)CC(=O)c1ccccc1 was tested, and the T/C (dose: 25.0 mg/kg/injection, schedule: Q01DX009 (ip), vehicle: saline with Tween-80) was 101 % of control and 106 % of control, the T/C [1] was 97 % of control and the T/C [2] was 111 % of control and 106 % of control. For the same compound, the T/C (dose: 200.0 mg/kg/injection, schedule: Q01DX009 (ip), vehicle: saline with Tween-80) was 103 % of control and 111 % of control.
O=C(Nc1ccc(F)cc1)ON=C1CCCCC1 was tested, and the T/C [3] was 92 % of control, the T/C [4] was 97 % of control and the T/C [5] was 90 % of control.
COc1ccc2c(c1O)-c1cc(O)cc3c1C(C2)N(C(=O)CN(CCCl)CCCl)CC3 (stereo not drawn) was tested, and the T/C (dose: 12.5 mg/kg/injection, schedule: Q04DX003 (ip), vehicle: distilled water + Tween-80) was 158 % of control, the T/C (dose: 12.5 mg/kg/injection, schedule: Q04DX003 (ip), vehicle: water) was 158 % of control and the T/C (dose: 25.0 mg/kg/injection, schedule: Q04DX003 (ip), vehicle: distilled water + Tween-80) was 114 % of control. For the same compound, the T/C (dose: 25.0 mg/kg/injection, schedule: Q04DX003 (ip), vehicle: water) was 116 % of control and the T/C (dose: 50.0 mg/kg/injection, schedule: Q04DX003 (ip), vehicle: water) was 96 % of control.
Nc1nc(N)sc(=S)n1 was tested, and the T/C (dose: 25.0 mg/kg/injection, schedule: Q01DX009 (ip), vehicle: Klucel (hydroxypropylcellulose) (HPC)) was 100 % of control, the T/C (dose: 50.0 mg/kg/injection, schedule: Q01DX009 (ip), vehicle: Klucel (hydroxypropylcellulose) (HPC)) was 107 % of control and the T/C (dose: 100.0 mg/kg/injection, schedule: Q01DX009 (ip), vehicle: Klucel (hydroxypropylcellulose) (HPC)) was 94 % of control. For the same compound, the T/C (dose: 200.0 mg/kg/injection, schedule: Q01DX009 (ip), vehicle: Klucel (hydroxypropylcellulose) (HPC)) was 101 % of control.
For CS(=O)(=O)c1nnc(-c2cccc[n+]2[O-])s1, the T/C [6] was 116 % of control and the T/C [7] was 114 % of control.
COC(=O)/C=C/c1cc(=O)n2c(nc3ccccc32)s1 was tested, and the T/C (dose: 15.0 mg/kg/injection, schedule: Q01DX005 (ip), vehicle: Klucel (hydroxypropylcellulose) (HPC)) was 100 % of control, the T/C (dose: 30.0 mg/kg/injection, schedule: Q01DX005 (ip), vehicle: Klucel (hydroxypropylcellulose) (HPC)) was 89 % of control and the T/C (dose: 60.0 mg/kg/injection, schedule: Q01DX005 (ip), vehicle: Klucel (hydroxypropylcellulose) (HPC)) was 86 % of control.
With Brc1cccc2[s+]snc12 the T/C [8] was 101 % of control, the T/C [9] was 105 % of control and the T/C [10] was 97 % of control.
For COC(=O)CC1C=CC(OC)[C@@]2(C)C(=O)C=C(C)C(=O)[C@@H]12 (stereo partly drawn), the T/C [3] was 110 % of control, the T/C [4] was 106 % of control and the T/C [5] was 106 % of control.
With CN(C)CCC=C1c2ccccc2C(C)(C)c2ccccc21 the T/C [6] was 98 % of control and the T/C [7] was 97 % of control.
COC1/C=C/OC2(C)Oc3c(C)c(O)c4c(O)c(c(/C=N/N5CC(C)(C)N(Cc6ccccc6)CC5(C)C)c(O)c4c3C2=O)NC(=O)C(C)=C/C=C/C(C)C(O)C(C)C(O)C(C)C(OC(C)=O)C1C (stereo not drawn) was tested, and the T/C [1] was 107 % of control and the T/C [2] was 118 % of control.
With ClCC[N+]12CC[N+](CCCl)(CC1)C2.[Cl][Pt]([Cl])([Cl])[Cl] the T/C (dose: 6.25 mg/kg/injection, schedule: Q01DX009 (ip), vehicle: distilled water + Tween-80) was 100 % of control and the T/C (dose: 25.0 mg/kg/injection, schedule: Q01DX009 (ip), vehicle: distilled water + Tween-80) was 169 % of control.
O=c1oc2ccccc2cc1S(=O)(=O)c1ccccc1 was tested, and the T/C [3] was 94 % of control, the T/C [4] was 91 % of control and the T/C [5] was 91 % of control.
With Cc1cccc(C(=O)O)c1C the T/C (dose: 50.0 mg/kg/injection, schedule: Q04DX003 (ip), vehicle: gum acacia) was 100 % of control, the T/C (dose: 100.0 mg/kg/injection, schedule: Q04DX003 (ip), vehicle: gum acacia) was 97 % of control and the T/C (dose: 200.0 mg/kg/injection, schedule: Q04DX003 (ip), vehicle: gum acacia) was 93 % of control. The T/C (dose: 400.0 mg/kg/injection, schedule: Q04DX003 (ip), vehicle: gum acacia) was 98 % of control.
CC1(C)SC(C)(C)N2C(=O)[C@H]3N(C(=O)[C@@H]21)C(C)(C)SC3(C)C was tested, and the T/C (dose: 12.5 mg/kg/injection, schedule: Q01DX005 (ip), vehicle: saline with Tween-80) was 100 % of control, the T/C (dose: 25.0 mg/kg/injection, schedule: Q01DX005 (ip), vehicle: saline with Tween-80) was 94 % of control and the T/C [8] was 99 % of control and 91 % of control. The T/C [9] was 94 % of control and the T/C [10] was 97 % of control.
